Laboratory results taken from publication PMC5503534, “Stable aneuploid tumors cells are more sensitive to TTK inhibition than chromosomally unstable cell lines” (Oncotarget, 2017).
pIC50: −log10 of the molar value. Where two headings read alike, the source gives them in different places.

Experiments:
[1] = tested on: post-tetraploid HPT1 cells; assay: Cell proliferation assay, post-tetraploid HPT1; type: cell-based, human; conditions: HPT1, five days
Experimental: (§1) Cancer cell lines and hTERT-RPE1 retinal pigment epithelial cells were purchased from the American Type Culture Collection (ATCC) (Manassas, VA, U.S.A.) from 2011 to 2014 [41] and cultured in ATCC-recommended media. All experiments were carried out within nine passages of the original vials from ATCC who authenticated the cancer cell lines by short tandem repeat analysis. We verified the mutant status of seven frequently mutated cancer genes (i.e., BRAF, CDKN2A, CTNNB1, EGFR, KRAS, PIK3CA and TP53) by full exome or targeted sequencing. Sequencing results were compared to COSMIC version 75 of the Genomics of Drug Sensitivity in Cancer data base and provided additional authentication of the identity of the cell lines. The isolation and characterization of post-tetraploid clones from HCT 116 has been described previously. The mutation status of the CDKN2A, CTNNB1, KRAS and PIK3CA genes were confirmed by sequence analysis in both the HCT 116 parental cell line and post-tetraploid clones. All experiments were carried out within nine passages of the original cell stocks that were transferred from the Max Planck Institute of Biochemistry (Martinsried, Germany) to Netherlands Translational Research Center.
(§2) Cell proliferation assays were carried out as described using ATPlite 1step™ (Perkin Elmer, Groningen, The Netherlands). Exposure time was 72 or 120 hours as indicated in the Legends to the Figures. Percentage growth was calculated, relative to the growth of unexposed cells, and relative IC50s were fitted using a four-parameter logistics curve (XLfit 5.3, IDBS). For Figure 4A and 7 dose response curves were redrawn in Prism. To compare the inhibitory potency of compounds in proliferation assays with HCT 116 parental and tetraploid clones, pIC50 (−^10logIC50) values were compared in three independent experiments. A two-tailed Student's t-test was performed to determine whether differences in sensitivity (ΔpIC50) were statistically significant. Caspase 3/7 activity of cancer cells was measured using Caspase-Glo 3/7 Assay kit (cat no. G8093, Promega, Madison USA). Viability of T-ALL cell samples was determined using ATPlite and exposure of 72 hours as described previously.

[2] = tested on: A-172 glioblastoma cell line; assay: Cell proliferation assay (ATPlite), A-172; type: cell-based, human; conditions: Homo sapiens, 120 h, 5 day proliferation assay
Experimental: as §2

[3] = tested on: patient-derived colorectal carcinoma organoids; assay: Organoids drug sensitivity and viability assay; type: cell-based, human; conditions: Homo sapiens; for pIC50: read-out: IC50; for IC50: read-out: pIC50 (converted)
Experimental: The establishment and characterization of the human colon cancer organoids has been described. The organoids were cultured in drops of Geltrex LDEV-Free Reduced Growth Factor Basement Membrane Matrix (Gibco, cat no. A1413202) in DMEM/F12 medium (Thermo), supplemented with 1% (v/v) penicillin/streptomycin (Gibco), 1% Hepes buffer, pH7.5, 1% L-glutamine (Gibco), 1 μg/mL R-spondin (Sigma), 100 ng/mL Noggin (Peprotech), B27 vitamin A-free (Invitrogen, cat no. 12587010), 1 mM n-acetyl cysteine (Sigma), 10 mM nicotinamide (Sigma), 50 ng/mL EGF (BD Biosciences), 500 nM A83-01 (Tocris), 10 μM SB202190 (Sigma), 10 μM Y-27632 (Sigma) and 10 nM Prostaglandin E2 (Cayman). Medium was refreshed every four days and organoids were splitted by treatment with TryPLE Express (Gibco, cat. no. 12604013).
Organoids were dissociated by TryPLE Express treatment and filtered using a 40 μm nylon cell strainer (Falcon). The organoids were re-suspended in Geltrex at a density of 250,000 cells/mL and seeded in the wells of 96-well plates (Corning, cat no. 3903) at 10 μl per well. Compounds were added four days after plating and 72 hours later viability was determined using Cell-Titer Glo 3D Cell Viability Assay (Promega, Madison USA). Experiments were performed in three biological replicates and technical triplicates were averaged per experiment.

[4] = tested on: post-tetraploid HPT4 cells; assay: Cell proliferation assay, post-tetraploid HPT4; type: cell-based, human; conditions: HPT4, five days
Experimental: as §1, §2

TTK kinase domain = biological target: T1, TTK kinase domain (Homo sapiens, UniProt P33981); assay: Surface plasmon resonance binding kinetics, TTK; conditions: SPR, geometric average
T1 construct: using bacterially expressed TTK kinase domain and Sf9 insect cell-expressed Aurora B; purchased Carna Biosciences, Inc., Kobe, Japan
T1 sequence (P33981 525-791 limits assumed): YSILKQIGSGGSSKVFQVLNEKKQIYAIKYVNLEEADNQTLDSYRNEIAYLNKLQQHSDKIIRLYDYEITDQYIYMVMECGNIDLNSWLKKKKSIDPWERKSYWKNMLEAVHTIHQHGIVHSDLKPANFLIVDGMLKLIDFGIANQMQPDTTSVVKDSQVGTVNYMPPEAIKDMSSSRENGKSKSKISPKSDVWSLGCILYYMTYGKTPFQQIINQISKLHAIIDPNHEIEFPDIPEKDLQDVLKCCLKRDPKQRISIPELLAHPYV
Text: (§3) Originally, the compound was identified in a phenotypic screen for molecules that can induce stem-cell like phenotypes. Later this property was attributed to its ability to inhibit the mitotic kinase Aurora B [39].

full-length Aurora B = biological target: T2, full-length Aurora B (Homo sapiens, UniProt Q96GD4); assay: Surface plasmon resonance binding kinetics, Aurora B; conditions: SPR, geometric average
T2 construct: to the kinase domain of TTK and full-length Aurora B; purchased Carna Biosciences, Inc., Kobe, Japan; host or cells: Sf9 insect cells
Text: as §3

[5] = tested on: DoTc2 4510 cervix carcinoma cell line; assay: Cell proliferation assay (ATPlite), DoTc2 4510; type: cell-based, human; conditions: Homo sapiens, 120 h, 5 day proliferation assay
Experimental: as §2

[6] = tested on: HCT 116 colon carcinoma cell line; assay: Cell proliferation assay (ATPlite), HCT 116; type: cell-based, human; conditions: for pIC50: Homo sapiens, HCT-116, 120 h
Experimental: as §2

[7] = tested on: HCT 116 vs HPT1, -2 and -4; assay: Drug sensitivity analysis, HCT116 diploid versus tetraploids; type: cell-based, human
Experimental: as §2

[8] = tested on: MG-63 osteosarcoma cell line; assay: Cell proliferation assay (ATPlite), MG-63; type: cell-based, human; conditions: Homo sapiens, 120 h, 5 day proliferation assay
Experimental: as §2

[9] = tested on: 66 cancer cell lines (44 cell lines); parameters: method as in earlier work; conditions: 5 days; geometric average in 66 cancer cell lines; cited from earlier work
[10] = tested on: OVCAR-3 ovary adenocarcinoma cell line; assay: Cell proliferation assay (ATPlite), OVCAR-3; type: cell-based, human; conditions: Homo sapiens, 120 h, 5 day proliferation assay
Experimental: as §2

[11] = tested on: post-tetraploid HPT2 cells; assay: Cell proliferation assay, post-tetraploid HPT2; type: cell-based, human; conditions: HPT2, five days
Experimental: as §1, §2

[12] = Homo sapiens, 120 h, geometric average of three experiments

T2 sequence (Q96GD4 whole entry, the tested form may be a part): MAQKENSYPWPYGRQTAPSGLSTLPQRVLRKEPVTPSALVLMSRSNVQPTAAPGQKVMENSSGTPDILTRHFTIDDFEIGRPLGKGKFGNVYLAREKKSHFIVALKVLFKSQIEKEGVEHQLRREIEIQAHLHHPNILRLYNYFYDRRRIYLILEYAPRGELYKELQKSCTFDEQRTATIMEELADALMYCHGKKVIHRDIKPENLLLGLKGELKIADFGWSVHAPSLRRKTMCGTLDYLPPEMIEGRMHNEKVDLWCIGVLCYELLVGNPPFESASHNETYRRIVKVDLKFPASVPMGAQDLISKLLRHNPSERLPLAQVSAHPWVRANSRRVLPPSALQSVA

- pIC50 [2]: 6.80
- pIC50 ([3]; 72 h, organoid p14, three days): 6.31
- IC50 ([3]; 72 h, organoid p14, three days): 0.468 µM
- pIC50 ([3]; 72 h, organoid p18, three days): 6.55
- IC50 ([3]; 72 h, organoid p18, three days): 0.269 µM
- pIC50 ([3]; 72 h, organoid p28, three days): 6.12
- IC50 ([3]; 72 h, organoid p28, three days): 0.646 µM
- IC50 ([3]; All organoids, geometric average): 0.437 µM
- kd (TTK kinase domain): 8.86e-05 s⁻¹
- kd (full-length Aurora B): 0.00484 s⁻¹
- pIC50 [5]: 6.38
- pIC50 ([6]; 5 day proliferation assay, HCT 116 (Suppl. Table 1)): 6.76
- pIC50 ([6]; HCT 116 near-diploid, five days, geometric average of three experiments (Suppl. Table 2A)): 6.62
- pIC50 [8]: 6.36
- pIC50 [10]: 6.36
SMILES: c1nc2nc(Nc3ccc(N4CCOCC4)cc3)nc(NC3CCCCC3)c2[nH]1 [reversine]
- Efficacy (%) ([1]; average of three experiments): 58%
- pIC50 [1, 12]: 6.68
- Efficacy (%) ([4]; average of three experiments): 33%
- pIC50 [4, 12]: 6.80
- Eff. (%) ([6]; HCT 116, five days, maximum inhibitory effect, average of three experiments): 77%
- Δeff. (%) ([7]; HCT 116 vs HPT1, -2 and -4): −32%
- Phenotype (efficacy) ([7]; HCT 116 vs HPT1, -2 and -4, based on % effect): resistant
- Phenotype (potency) ([7]; HCT 116 vs HPT1, -2 and -4, 'resistant' indicates that tetraploids are resistant): sensitive
- ΔpIC50 ([7]; average log shift in sensitivity between parental and tetraploids): −0.08
- pIC50 [9]: 6.62
- Efficacy (%) ([11]; average of three experiments): 44%
- pIC50 [11, 12]: 6.60
